The values below are quoted from earlier work in US20210069377A1, “TISSUE SCAFFOLD” (priority 2018, published 2021).

The conditions of the data set: at 20° C. and 1 atm.

As to `O=C(CO)[C@@H](O)[C@H](O)[C@H](O)CO` [Fructose], the solubility entry is reported as “about 375 g/100 g water”.
